US8377944B2, “Thienopyrimidine derivatives” (ASKA Pharmaceutical Co., Ltd., priority 2005, dated 2013)

Tests used:
[1] = target: T1, human recombinant PDE9 protein (Homo sapiens, UniProt O76083); experiment: Measurement of PDE9-inhibiting activity; type: biochemical; conditions: human recombinant PDE9, [3H]-cGMP substrate; read-out: Inhibitory Activity (IC50 value) PDE 9
T1 construct: made in house; host or cells: COS-1 cells, transient transfection of pcDNA 3.1(+); supernatant of the cell homogenate
Text: (1) Measurement of PDE9-Inhibiting Activity:
1) Preparation of Human Recombinant PDE9 Protein
Based on the base sequence of hsPDE9A1 registered with GenBank database (accession No.: AF048837), hsPDE9A1 fragment was amplified by polymerase chain reaction under the following conditions, using the following sequence (Amasham Pharmacia Biotech) as the primer and Human Prostate […] cDNA library (CLONTECH) as the template DNA, with Pfu Turbo DNA polymerase ([…]):
hPDE9-5A primer: […] [SEQ ID NO: 1]
hPDE9-3A primer: […] [SEQ ID NO: 2]
PCR condition: [95° C., 5 min]×1 cycle, [(95° C., 1 min), (58° C., 2 min), (72° C., 3 min)]×25 cycle, [72° C., 10 min]×1 cycle
Thus obtained hsPDE9A1 fragment was given a restricted enzymatic treatment with NheI and NotI, and thereafter inserted into pcDNA 3.1(+) expression vector (Invitrogen) to let it serve as a human PDE9 expression vector.
Human PDE9 expression vector-transformed Escherichia coli was mass incubated to produce a large amount of PDE9 expression vector, which was transiently transfected into COS-1 cells, with LIPOFECTAMINE 2000 Reagent (GIBCO). […]
To 150 μL of buffer B (70 mmol/L Tris-HCl, pH7.5; 16.7 mmol/L MgCl2, 33.3 nmol/L [^3H]-cGMP) solution containing [^3H]-cGMP (specific activity=244.2 GBq/mmol) at a concentration of 33.3 nmol/L, 50 μL of a solution of the compound to be evaluated (formed by dissolving the compound in DMSO and diluting it with distilled water to DMSO concentration of 5%) and 50 μL of the PDE9 protein solution as prepared in the above, as diluted with buffer C (40 mmol/L Tris-HCl, pH7.5, 15 mmol/L benzamidine, 15 mmol/L 2-mercaptoethanol, 1 μg/mL Pepstatin A, 1 μg/mL Leupeptin) by 1,500×, were added under cooling with ice. […] Thereafter [^3H]-guanosine was eluted with 3 mL of 3 mol/L aqueous ammonia and its radiation activity was measured with liquid scintillation counter.
PDE9 inhibition of the tested compound can be calculated by the following formula: […]
From the inhibition ratios at various concentration levels of each tested compound, its IC50 value against PDE9 was determined.

[2] = target: T2, human recombinant PDE5 protein (Homo sapiens, UniProt O76074); experiment: Measurement of PDE5-inhibiting activity; type: biochemical; conditions: human recombinant PDE5, [3H]-cGMP substrate; read-out: Inhibitory Activity (IC50 value) PDE 5
T2 construct: made in house; host or cells: COS-1 cells, transient transfection of pcDNA 3.1(+); supernatant of the cell homogenate
Text: (2) Measurement of PDE5-Inhibiting Activity:
1) Preparation of Human Recombinant PDE5 Protein
Based on the base sequence of hsPDE5A1 registered with GenBank database (accession No.: NM_001083), hsPDE5A1 fragment was amplified by polymerase chain reaction under the following conditions, using the following sequence (SIGMA GENOSYS) as the primer and Human Prostate […] cDNA library (CLONTECH) as the template DNA, with KDD plus DNA polymerase (TOYOBO): […]
hPDE5-5′E primer: […] [SEQ ID NO: 3] […]
hPDE5-3′ primer: […] [SEQ ID NO: 4]
PCR condition: [94° C., 2 min]×1 cycle, [(94° C., 30 sec), (65° C., 30 sec), (68° C., 3 min)]×25 cycle, [68° C., 6 min]×1 cycle Thus obtained hsPDE5A1 fragment was given a restricted enzymatic treatment with XBaI and EcoRI, and thereafter inserted into pcDNA 3.1(+) expression vector (Invitrogen) to let it serve as a human PDE5 expression vector.
Human PDE5 expression vector-transformed Escherichia coli was mass incubated to produce a large amount of PDE5 expression vector, which was transiently transfected into COS-1 cells, with LIPOFECTAMINE 2000 Reagent (GIBCO). The cells were homogenized in ice-cooled buffer A and centrifuged at 4° C., 14,000×g for 10 minutes. The supernatant was isolated to provide human recombinant PDE5 protein solution.
2) Measurement of PDE5-Inhibiting Activity
By a method similar to the measurement of PDE9-inhibiting activity, PDE5-inhibiting activity of the test compounds was measured, their inhibition was calculated and IC50 value to PDE5 of each of the compounds was determined. The results are shown in the following Table A, concurrently with the compounds' IC50 values against PDE9.

[3] = test system: model of urethral obstruction with the guinea pigs; experiment: Dysuria pathological model (urethral obstruction), cystometry; type: in vivo, guinea pig; conditions: for Frequency of non-voiding contraction, pre-administration / Residual urine volume, pre-administration: baseline before administration; for Frequency of non-voiding contraction, pre-administration / Residual urine volume, pre-administration / Frequency of non-voiding contraction, post-administration / Residual urine volume, post-administration: mean; for Frequency of non-voiding contraction, post-administration / Residual urine volume, post-administration: up to 30 min after administration; for Frequency of non-voiding contraction, quantitative change / Residual urine volume, quantitative change: post minus pre
Protocol: (3) Investigation of PDE9 Inhibitory Activity on Dysuria Pathological Model
Three to four weeks old female Hartley strain guinea pigs (Nippon SLC) were laparotomized under anesthesia with pentobarbital (30 mg/kg i.p.), and a polyethylene tube of 1.4 mm in width and 2.0 mm in inner diameter was placed in each guinea pig's urethra to the distal side by 1-2 mm from the bladder neck. After closing the incision, the guinea pigs were reared for at least 3 weeks to provide a model of urethral obstruction with the guinea pigs in which rise in intravesical pressure not accompanied by voiding (non-voiding contraction) and residual urine were induced.
The model was catheterized under anesthesia with urethane (1 g/kg i.p.) at the apex of urinary bladder and right jugular vein for cystometrography and intravenous administration, respectively. The other end of the bladder catheter was connected to a pressure transducer and infusion pump through three way stopcock. By means of the infusion pump, physiological saline was continuously infused into the bladder at a rate of 0.4 mL/min to induce micturition reflex. Immediately after the micturition reflex was induced, the physiological saline infusion into the bladder was stopped. The intravesical pressure at the time the micturition occurred was measured with the pressure transducer and the cystometrogram was recorded with pen recorder. The urine voided was collected with a disposable type weighing dish to measure its weight. Further the physiological saline remained in the bladder was sucked with syringe through the bladder catheter to measure the residual urine volume. Multiple operation cycles (normally 4 times) of suspending physiological saline infusion when micturition reflex was induced and resuming the infusion after about 1 minute to induce next micturition reflex, were repeated to stabilize the voiding response.
Also the frequency of non-voiding contraction occurred during the operations was measured. The respective mean values of frequency of non-voiding contraction and residual urine volume in the experiment using several guinea pigs are shown in the following Table B.

T1 sequence (O76083 whole entry): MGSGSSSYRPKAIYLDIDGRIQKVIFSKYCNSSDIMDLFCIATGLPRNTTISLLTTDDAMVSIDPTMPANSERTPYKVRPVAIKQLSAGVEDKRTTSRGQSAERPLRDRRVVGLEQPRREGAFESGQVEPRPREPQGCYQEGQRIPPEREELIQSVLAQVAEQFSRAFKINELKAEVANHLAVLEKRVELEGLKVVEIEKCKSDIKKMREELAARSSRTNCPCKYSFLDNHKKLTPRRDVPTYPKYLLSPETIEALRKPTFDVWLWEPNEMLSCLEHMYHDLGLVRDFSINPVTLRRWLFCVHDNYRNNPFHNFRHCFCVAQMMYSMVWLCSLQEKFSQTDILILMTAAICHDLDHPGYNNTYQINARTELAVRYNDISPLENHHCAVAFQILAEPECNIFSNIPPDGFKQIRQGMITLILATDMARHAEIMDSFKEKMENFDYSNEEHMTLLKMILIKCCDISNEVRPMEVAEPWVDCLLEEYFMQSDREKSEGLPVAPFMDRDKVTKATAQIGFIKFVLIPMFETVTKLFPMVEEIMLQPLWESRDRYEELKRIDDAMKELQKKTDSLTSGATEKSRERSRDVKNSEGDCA

Row | Compound | Frequency of non-voiding contraction, pre-administration ([3]; 0.3 mg/kg i.v.) [count/min] | Frequency of non-voiding contraction, post-administration ([3]; 0.3 mg/kg i.v.) [count/min] | Frequency of non-voiding contraction, pre-administration ([3]; 3 mg/kg i.v.) [count/min] | Residual urine volume, pre-administration ([3]; 3 mg/kg i.v.) [mL] | Frequency of non-voiding contraction, post-administration ([3]; 3 mg/kg i.v.) [count/min] | Frequency of non-voiding contraction, pre-administration ([3]; 10 mg/kg i.v.) [count/min] | Frequency of non-voiding contraction, post-administration ([3]; 10 mg/kg i.v.) [count/min] | Residual urine volume, post-administration ([3]; 10 mg/kg i.v.) [mL] | Residual urine volume, pre-administration ([3]; 10 mg/kg i.v.) [mL] | also measured
1 | Cc1c(C(=O)O)sc2nc(Cc3ccc(F)c(Cl)c3)[nH]c(=O)c12 [Example 52, 2-(3-Chloro-4-fluorobenzyl)-5-methyl-4-oxo-3,4-dihydrothieno[2,3-d]pyrimidine-6-carboxylic acid] |  |  |  |  |  |  |  |  |  | IC50 [1]: 38 nM; IC50 [2]: 3420 nM
2 | Cc1c(C(=O)O)sc2nc(Cc3cccc(Cl)c3)[nH]c(=O)c12 [Example 10, 2-(3-Chlorobenzyl)-5-methyl-4-oxo-3,4-dihydrothieno-[2,3-d]pyrimidine-6-carboxylic acid] | 1.16 | 0.80 | 1.16 | 0.95 | 0.49 | 1.16 | 0.60 | 0.95 |  | Residual urine volume, pre-administration ([3]; 0.3 mg/kg i.v.): 0.95 mL
3 | Cc1c(C(=O)O)sc2nc(Cc3ccc(Cl)c(Cl)c3)[nH]c(=O)c12 [Example 36, 2-(3,4-Dichlorobenzyl)-5-methyl-4-oxo-3,4-dihydrothieno-[2,3-d]pyrimidine-6-carboxylic acid] |  |  | 1.16 | 1.33 | 0.77 | 1.11 | 0.64 | 0.64 | 1.06 | Frequency of non-voiding contraction, pre-administration ([3]; 1 mg/kg i.v.): 0.96 count/min; Residual urine volume, pre-administration ([3]; 1 mg/kg i.v.): 0.82 mL; Frequency of non-voiding contraction, post-administration ([3]; 1 mg/kg i.v.): 0.79 count/min; Residual urine volume, post-administration ([3]; 1 mg/kg i.v.): 0.86 mL
4 | O=C(O)c1cc2c(=O)[nH]c(Cc3cccc(Cl)c3)nc2s1 [Example 104, 2-(3-Chlorobenzyl)-4-oxo-3,4-dihydrothieno[2,3-d]pyrimidine-6-carboxylic acid] | 1.08 | 0.55 | 1.44 | 1.37 | 0.78 | 1.57 | 0.83 | 0.62 | 1.68 | Residual urine volume, pre-administration ([3]; 0.3 mg/kg i.v.): 1.54 mL; Frequency of non-voiding contraction, quantitative change ([3]; 0.3 mg/kg i.v.): −0.53 count/min; Residual urine volume, quantitative change ([3]; 0.3 mg/kg i.v.): -0.52 mL; Residual urine volume, post-administration ([3]; 0.3 mg/kg i.v.): 1.02 mL; Frequency of non-voiding contraction, quantitative change ([3]; 3 mg/kg i.v.): −0.66 count/min; Residual urine volume, quantitative change ([3]; 3 mg/kg i.v.): -0.49 mL; Residual urine volume, post-administration ([3]; 3 mg/kg i.v.): 0.88 mL; Frequency of non-voiding contraction, quantitative change ([3]; 10 mg/kg i.v.): −0.74 count/min; Residual urine volume, quantitative change ([3]; 10 mg/kg i.v.): -1.06 mL
5 | 2-(Cyclopent-1-enylmethyl)-5-methyl-4-thioxo-3,4-dihydrothieno[2,3-d]pyrimidine-6-carboxylic acid and 2-cyclopentylidenemethyl-5-methyl-4-thioxo-3,4-dihydrothieno-[2,3-d]pyrimidine-6-carboxylic acid [Example 117] |  |  |  |  |  |  |  |  |  | IC50 [1]: 24 nM; IC50 [2]: 843 nM
6 | Cc1c(C(=O)O)sc2nc(Cc3cccc(Cl)c3)[nH]c(=S)c12 [Example 112, 2-(3-Chlorobenzyl)-5-methyl-4-thioxo-3,4-dihydrothieno-[2,3-d]pyrimidine-6-carboxylic acid] | 1.12 | 1.02 | 1.12 | 1.02 | 0.76 | 1.12 | 0.59 | 0.48 | 1.02 | Residual urine volume, post-administration ([3]; 0.3 mg/kg i.v.): 0.91 mL; Residual urine volume, post-administration ([3]; 3 mg/kg i.v.): 0.27 mL
7 | Cc1c(C(=O)O)sc2nc(Cc3cccs3)[nH]c(=O)c12 [Example 2, 5-Methyl-4-oxo-2-(thiophen-2-ylmethyl)-3,4-dihydrothieno[2,3-d]pyrimidine-6-carboxylic acid] |  |  |  |  |  | 0.91 | 0.78 |  | 1.27 | Frequency of non-voiding contraction, pre-administration ([3]; 1 mg/kg i.v.): 0.91 count/min; Residual urine volume, pre-administration ([3]; 1 mg/kg i.v.): 1.27 mL; Frequency of non-voiding contraction, post-administration ([3]; 1 mg/kg i.v.): 0.47 count/min
